According to patent US7772241B2, “Variolin derivatives and their use as antitumor agents” (Pharma Mar S.A., priority 2001, dated 2010):

Assays:
A-549 = test: Inhibition of cells growth by colorimetric (SRB) assay, A-549; conditions: for GI50 / CC50: Homo sapiens, A549, 48 h; for GI50: read-out: GI50 A-549, SRB assay, 48 hours exposure; for CC50: read-out: LC50 A-549, SRB assay, 48 hours exposure; for TGI A-549: SRB assay, 48 hours exposure
Excerpt: (§1) The finality of these assays is to interrupt the growth of a “in vitro” tumor cell culture by means a continued exhibition of the cells to the sample to be testing.
(§2) This form of the assay employs 96 well cell culture microplates of 9 mm diameter (Faircloth, 1988; Mosmann, 1983). Most of the cell lines are obtained from American Type Culture Collection (ATCC) derived from different human cancer types.
(§3) Cells are maintained in RPMI 1640 10% FBS, supplemented with 0.1 g/l penicillin and 0.1 g/l streptomycin sulphate and then incubated at 37° C., 5% CO2 and 98% humidity. For the experiments, cells were harvested from subconfluent cultures using trypsin and resuspended in fresh medium before plating.
(§4) Cells are seeded in 96 well microtiter plates, at 5×10^3 cells per well in aliquots of 195 μl medium, and they are allowed to attach to the plate surface by growing in drug free medium for 18 hours. Afterward, samples are added in aliquots of 5 μl in a ranging from 10 to 10^−8 μg/ml, dissolved in DMSO/EtOH/PBS (0.5:0.5:99). After 48 hours exposure, the antitumor effect are measured by the SRB methodology: cells are fixed by adding 50 μl of cold 50% (wt/vol) trichloroacetic acid (TCA) and incubating for 60 minutes at 4° C. Plates are washed with deionized water and dried. One hundred μl of SRB solution (0.4% wt/vol in 1% acetic acid) is added to each microtiter well and incubated for 10 minutes at room temperature. Unbound SRB is removed by washing with 1% acetic acid. Plates are air dried and bound stain is solubilized with Tris buffer. Optical densities are read on a automated spectrophotometric plate reader at a single wavelength of 490 nm.
(§5) The values for mean +/−SD of data from triplicate wells are calculated. Some parameters for cellular responses can be calculated: GI=growth inhibition, TGI=total growth inhibition (cytostatic effect) and LC=cell killing (cytotoxic effect).

HT-29 = test: Inhibition of cells growth by colorimetric (SRB) assay, HT-29; conditions: for GI50 / CC50: Homo sapiens, HT-29, 48 h; for GI50: read-out: GI50 HT-29, SRB assay, 48 hours exposure; for CC50: read-out: LC50 HT-29, SRB assay, 48 hours exposure; for TGI HT-29: SRB assay, 48 hours exposure
Excerpt: as §1, §2, §3, §4, §5

| Compound | GI50 (A-549) [µM] | GI50 (HT-29) [µM] | CC50 (A-549) [µM] | TGI A-549 (A-549) | CC50 (HT-29) [µM] | TGI HT-29 (HT-29) |
| --- | --- | --- | --- | --- | --- | --- |
| CSc1nccc(-c2c3cccnc3n3c(SC)nccc23)n1 [Compound 9] | 5.9 | 9.16 | 29.5 | 1.18E−05 | 25.7 | 2.57E−05 |
| CSc1nccc(-c2c3ccc(C)nc3n3c(SC)nccc23)n1 [Compound 22] | 0.85 | 2.83 | 22.7 | 2.27E−06 | 19.8 | 8.50E−06 |
| CSc1nccc(-c2c3cccnc3n3c(N)nccc23)n1 [Compound 25] | 0.649 | 0.974 | ≥ 162 | 3.25E−07 | ≥ 162 | 9.74E−07 |
| c1ccc(CNc2nccc(-c3c4cccnc4n4c(NCc5ccccc5)nccc34)n2)cc1 [Compound 28] | 109 | 109 | 109 | 1.09E−04 | 109 | 1.09E−04 |
| CSc1nccc(-c2c3c(OCc4ccccc4)ccnc3n3c(SC)nccc23)n1 [Compound 52] | 5.81 | 5.36 | 15.7 | 9.56E−06 | 15.7 | 9.20E−06 |

Continued, in another order:

| GI50 (A-549) [µM] | GI50 (HT-29) [µM] | Compound | CC50 (A-549) [µM] | TGI A-549 (A-549) | CC50 (HT-29) [µM] | TGI HT-29 (HT-29) |
| --- | --- | --- | --- | --- | --- | --- |
| ≥ 25.7 | ≥ 25.7 | CSc1nccc(-c2c3cc4ccccc4nc3n3c(SC)nccc23)n1 [Compound 17a] | 129 | 7.71E−05 | 129 | 7.71E−05 |
| 7.16 | 7.16 | COc1ccc2nc3c(cc2c1)c(-c1ccnc(SC)n1)c1ccnc(SC)n13 [Compound 17b] | 19.1 | 1.19E−05 | 19.1 | 1.19E−05 |
